According to ChEMBL document CHEMBL5113392, “Novel hybrid pyrrolidinedione-thiazolidinones as potential anticancer agents: Synthesis and biological evaluation” (Eur J Med Chem, 2022):
The source made the active and inactive calls. The calls are words filed in the database; no cut-off is given here.

Experiments:
Jurkat [1] = test: Induction of morphological changes in human Jurkat cells assessed as chromatin topology incubated for 24 hrs by Hoechst 33258 and propidium iodide staining based fluorescence microscopy; assay type: functional, cell-based
[2] = Anticancer activity against human HCT116-p53-null cells assessed as cell growth inhibition incubated for 72 hrs by MTT assay; assay type: functional
Lymphocyte [3] = test: Induction of DNA damage in mitogen activated human peripheral blood lymphocytes assessed as olive tail moment at 0.5 uM incubated for 24 hrs by alkaline Comet assay; assay type: toxicity, cell-based
U-251 = test: Anticancer activity against human U-251 cells assessed as cell growth inhibition incubated for 72 hrs by MTT assay; assay type: functional
[4] = Cytotoxicity against mitogen activated human peripheral blood lymphocytes assessed as cell growth inhibition incubated for 48 hrs by MTT assay; assay type: toxicity, cell-based, Lymphocyte
Jurkat [5] = test: Induction of morphological changes in human Jurkat cells assessed as plasma membrane blebbing incubated for 24 hrs by Hoechst 33258 and propidium iodide staining based fluorescence microscopy; assay type: functional, cell-based
HCT-116 [6] = test: Induction of DNA damage in human HCT-116 cells assessed as olive tail moment at 0.5 uM incubated for 2 hrs by alkaline Comet assay; assay type: functional
A549 = test: Anticancer activity against human A549 cells assessed as cell growth inhibition incubated for 72 hrs by MTT assay; assay type: functional
Jurkat [7] = test: Induction of apoptosis in human Jurkat cells assessed as decrease in Bcl-2 level at 0.5 uM for 24 hrs by Western blot analysis; assay type: functional, cell-based
Jurkat [8] = test: Induction of apoptosis in human Jurkat cells assessed as decrease in Endo-G protein level at 0.5 uM for 24 hrs by Western blot analysis; assay type: functional, cell-based
Jurkat [9] = test: Induction of morphological changes in human Jurkat cells assessed as change in cell shape incubated for 24 hrs by Hoechst 33258 and propidium iodide staining based fluorescence microscopy; assay type: functional
HCT-116 [10] = test: Induction of DNA damage in human HCT-116 cells assessed as tail DNA at 0.5 uM incubated for 2 hrs by alkaline Comet assay; assay type: functional
MCF7 = test: Anticancer activity against human MCF7 cells assessed as cell growth inhibition incubated for 72 hrs by MTT assay; assay type: functional
Salmon testes DNA [11] = test: Displacement of methyl green from salmon sperm DNA at 10 uM measured after 2 hrs by fluorescence plate reader method relative to control; assay type: nucleic-acid assay; details: Salmo salar
SK-OV-3 = test: Anticancer activity against human SK-OV-3 cells assessed as cell growth inhibition incubated for 72 hrs by MTT assay; assay type: functional
Jurkat [12] = test: Induction of DNA damage in human Jurkat cells assessed as olive tail moment at 0.5 uM incubated for 24 hrs by alkaline Comet assay; assay type: functional
HCT-116 [13] = test: Anticancer activity against human HCT-116 cells assessed as cell growth inhibition incubated for 72 hrs by MTT assay; assay type: functional
Salmon testes DNA [14] = test: Binding affinity to double stranded salmon sperm DNA assessed as increase in DNA oxidation level by measuring net change in absorbance at 10 uM incubated for 1 hr by UV based spectroscopic method; assay type: nucleic-acid assay; details: Salmo salar
Jurkat [15] = test: Induction of morphological changes in human Jurkat cells assessed as chromatin condensation incubated for 24 hrs by Hoechst 33258 and propidium iodide staining based fluorescence microscopy; assay type: functional, cell-based
HCT-116 [16] = test: Induction of DNA damage in human HCT-116 cell lysate assessed as olive tail moment at 0.5 uM incubated for 2 hrs in dark by Comet assay; assay type: functional
HCT-116 [17] = test: Induction of DNA damage in human HCT-116 cell lysate assessed as tail DNA at 0.5 uM incubated for 2 hrs in dark by Comet assay; assay type: functional
Jurkat [18] = test: Induction of apoptosis in human Jurkat cells assessed as increase in cleaved capase-3 level at 0.5 uM for 24 hrs by Western blot analysis; assay type: functional, cell-based
[19] = Cytotoxicity against mitogen activated human peripheral blood lymphocytes assessed as cell growth inhibition incubated for 24 hrs by MTT assay; assay type: toxicity, cell-based, Lymphocyte
Lymphocyte [20] = test: Induction of DNA damage in mitogen activated human peripheral blood lymphocytes assessed as tail DNA at 0.5 uM incubated for 24 hrs by alkaline Comet assay; assay type: toxicity, cell-based
MDA-MB-231 = test: Anticancer activity against human MDA-MB-231 cells assessed as cell growth inhibition incubated for 72 hrs by MTT assay; assay type: functional
Jurkat [21] = test: Induction of apoptosis in human Jurkat cells assessed as increase in Bax level at 0.5 uM for 24 hrs by Western blot analysis; assay type: functional, cell-based
KB 3-1 = test: Anticancer activity against human KB 3-1 cells assessed as cell growth inhibition incubated for 72 hrs by MTT assay; assay type: functional
[22] = Cytotoxicity against human HaCaT cells assessed as cell growth inhibition incubated for 72 hrs by MTT assay; assay type: toxicity, cell-based
HeLa = test: Anticancer activity against human HeLa cells assessed as cell growth inhibition incubated for 72 hrs by MTT assay; assay type: functional
Jurkat [23] = test: Induction of DNA damage in human Jurkat cells assessed as tail DNA at 0.5 uM incubated for 24 hrs by alkaline Comet assay; assay type: functional
Jurkat [24] = test: Anticancer activity against human Jurkat cells assessed as cell growth inhibition incubated for 72 hrs by MTT assay; assay type: functional
Jurkat [25] = test: Induction of morphological changes in human Jurkat cells assessed as chromatin fragmentation incubated for 24 hrs by Hoechst 33258 and propidium iodide staining based fluorescence microscopy; assay type: functional, cell-based

Which Activity (Jurkat [1]) does the source give for `COc1cccc2c1C(=O)c1c(O)c3c(c(O)c1C2=O)C[C@@](O)(C(=O)CO)C[C@@H]3O[C@H]1C[C@H](N)[C@H](O)[C@H](C)O1` [DOXORUBICIN] here?
Its Activity is “Active”.

And the GI50 [2]?
Its GI50 is 2800 nM.

What about the Activity (Lymphocyte [3]) of the same molecule?
The Activity was 8.12%.

And the GI50 (U-251)?
Its GI50 is 890 nM.

And the GI50 at 48 h [4]?
The GI50 at 48 h was 500 nM.

And the Activity (Jurkat [5])?
The Activity was “Active”.

What about the Activity (HCT-116 [6]) of the same molecule?
Its Activity is 1%.

What about the GI50 (A549) of the same molecule?
Its GI50 is 970 nM.

What about the Activity (Jurkat [7]) of the same molecule?
The Activity was “Active”.

What about the Activity (Jurkat [8]) of the same molecule?
The Activity was “Active”.

And the Activity (Jurkat [9])?
The Activity was “Active”.

What about the Activity (HCT-116 [10]) of the same molecule?
The Activity was 18%.

What about the GI50 (MCF7) of the same molecule?
The GI50 was 750 nM.

What about the Activity (Salmon testes DNA [11]) of the same molecule?
Its Activity is 68.7%.

And the GI50 (SK-OV-3)?
The GI50 was 9100 nM.

What about the Activity (Jurkat [12]) of the same molecule?
Its Activity is 12.23%.

And the GI50 (HCT-116 [13])?
The GI50 was 570 nM.

And the Activity (Salmon testes DNA [14])?
The Activity was “Active”.

And the Activity (Jurkat [15])?
The Activity was “Active”.

And the Activity (HCT-116 [16])?
The Activity was 1.95%.

And the Activity (HCT-116 [17])?
Its Activity is 12.6%.

And the Activity (Jurkat [18])?
Its Activity is “Active”.

What about the GI50 at 24 h [19] of the same molecule?
Its GI50 at 24 h is 2900 nM.

And the Activity (Lymphocyte [20])?
The Activity was 25.9%.

And the GI50 (MDA-MB-231)?
The GI50 was 5950 nM.

What about the Activity (Jurkat [21]) of the same molecule?
The Activity was “Active”.

And the GI50 (KB 3-1)?
The GI50 was 980 nM.

And the GI50 at 72 h [22]?
The GI50 at 72 h was 640 nM.

What about the GI50 (HeLa) of the same molecule?
Its GI50 is 700 nM.

And the Activity (Jurkat [23])?
Its Activity is 40.9%.

What about the GI50 (Jurkat [24]) of the same molecule?
Its GI50 is 430 nM.

And the Activity (Jurkat [25])?
The Activity was “Active”.
